Values joined by “and” are separate entries in the source; they are usually repeats but may differ in a detail not shown here. Identical values can stand only once. Positions of bridges follow the written chain, without caps; N, C: chain ends. Non-standard residues stand in square brackets, D forms with d. Residues, ends and D or L forms follow the SMILES beside them. No end group written: not given here. *: point of attachment. Pen = CC(C)(S)[C@H](N)C(=O)O; PhAc = O=C(Cc1ccccc1)*
Key:
[1] = biological target: T1, VLA-4/sVCAM-1 (Homo sapiens, UniProt P05556+P13612); assay: In vitro inhibition of binding of Jurkat cells to solid phase-bound sVCAM-1; type: cell-based
T1 construct: host or cells: Jurkat cells (VLA-4). sVCAM-1 was made in house in transfected human 293 cells (ATCC CRL 1573) and purified from supernatant
Description: Assays conducted using sVCAM-1 as solid phase-bound antigen were carried out substantially identically to those using CS-1. The sVCAM-1 polypeptide used had the same amino acid residue sequence as the materials described in Lobb et al., Biochem. Biophys. Res. Commun., 178:1498-1504 (1991) and Cybulsky et al., Proc. Natl. Acad. Sci., USA, 88:7859-7863 (1991). Human embryonal kidney line 293 (ATCC CRL 1573) cells were co-transfected with a plasmid (pCDNAI;invitrogen) containing the sVCAM-1 DNA sequence and plasmid pSV2-neo [Southern et al., J. Mol. Appl. Gen., 1:327341 (1992)]. Cells were selected in DMEM, 10 percent fetal bovine serum and 600 μg/ml Geneticin. sVCAM-1 was purified from supernatants using a column containing monoclonal antibody P3H12 (anti-human VCAM-1) coupled to Sepharose 4B. The sVCAM-1 was eluted using 0.1M glycine at pH 2.5 following 50 column washes with PBS, pH 7.2. The eluate was immediately neutralized and dialyzed against PBS for use.

[2] = biological target: T2, VLA-4/CS-1 (Homo sapiens, UniProt P05556+P13612); assay: In vitro inhibition of binding of 51Cr-labeled Jurkat cells to solid phase-bound CS-1 peptide; type: cell-based
T2 construct: inflammatory cells that contain the VLA-4 receptor [Jurkat cells; host or cells: Jurkat (human T lymphoblastic line)
Description: Binding inhibition is measured here as a concentration of peptide that inhibits one-half the binding between a standard number of Jurkat cells and a standard amount of CS-1 peptide bound to the surface of a microtiter plate well. Those concentrations are conveniently expressed as IC50 values, smaller numbers indicating a lower concentration required to inhibit 50 percent binding and therefore greater potency. Further specifics of this assay are provided hereinafter.
Jurkat cells (ATCC TIB 152), a human T lymphoblastic line, labeled with ^51 chromium were used to assay in vitro binding inhibition provided by various peptides discussed herein.
The plates were prepared as follows: The 25-mer CS-1 peptide (SEQ ID NO:5) dissolved at 0.5-1 μg/ml in a buffer of 0.1M NaHCO3 at pH 9.5 that also contained 10 μg/ml of bovine serum albumin (BSA) or a conjugate of the CS-1 peptide linked to ovalbumin (CS-1-OVA) dissolved at 1-2.5 μg/ml in the same buffer was used as the substrate. Each well of the microtiter plates was coated with 50 μl of substrate or buffer alone for controls. The wells were permitted to dry out completely and were then rinsed twice with PBS at pH 7.4. Non-specific binding sites of each well were then blocked using 200 μl per well of RPMI/1 percent BSA for two hours at room temperature. Both solid phase-affixed substrates provided similar results.
Jurkat cells (3-5×10^6 cells) were placed into a 15 ml FALCON™ round-bottom tube with a cap. The tube was centrifuged, and the extra medium was then removed.
Two hundred microliters of a ^51 Cr labeling solution were added to the centrifuged cells and maintained in contact with the cells for 90-120 minutes in a warm room. This procedure typically provides about 50,000-100,000 cpm/well with about 80-100 percent cell viability. Longer contact times provide a greater amount of labeling but lower cell viability.
The labeled cells were washed with (i) complete medium, (ii) 1 mM EDTA/PBS and then (iii) RPM1/1 percent BSA free of serum components. The cells were centrifuged after each washing. The cells were finally resuspended in serum-free RPMI/1 percent BSA at a concentration of 1×10^6 viable cells/ml, which provides a concentration that is diluted by one-half in the assay.
Cyclic inhibitor peptides were prepared as stock solutions at 20 mg/ml in DMSO in 1.5 ml cryogenic screwcap vials, and were stored at -70° C. Using FLOW™ round-bottom or V-bottom microtiter plates, the inhibitor peptides were prepared at twice the assay concentration in RPMI/1 percent BSA at 60 μl/well.
Four initial dilutions were typically used.
The ^51 Cr-labeled cells (1×10^6 cells at 60 μl/well) were then admixed with the diluted cyclic peptide solutions. The admixtures were maintained at room temperature (about 22° C.) for 30 minutes.
One hundred microliters of each inhibitor peptide/cell admixture were transferred to the substrate-coated wells. This was done in triplicate for each dilution. The resulting plates were incubated for 30 minutes at 37° C. and then washed gently three times with RPMI/1 percent BSA at 200 μl/well. Binding was observed microscopically, particularly after the second wash.
The bound cells were then lysed by the addition of a 0.5 percent solution of sodium dodecylsulfate in water at 100 μl/well. The resulting solutions were then processed for counting and calculation of IC50 values following usual procedures. Appropriate positive and negative controls were used with each plate so that the results of separate assays could be normalized and compared.
The potency data of Table 1 and Table 2 are so normalized. The absolute IC50 value for the peptide of SEQ ID NO:7 is 0.3 μM.

[3] = Retention of potency in PBS containing 10 percent mouse or human serum; type: in vitro ADME; details: PBS at 7.2-7.4 with 10 percent mouse or human serum
[4] = tested on: Porcine peripheral blood lymphocytes; assay: In vitro porcine allograft model, transendothelial lymphocyte migration; type: cell-based; details: 10 μg/ml in the medium, IL-1β-stimulated SMC
Description: A similar study is carried out in vitro using porcine coronary artery endothelial cells (EC; as are present in the IEL) and smooth muscle cells (SMC; as are present in the medial layer of the artery). The two cell types are cultured using a membrane transwell system, with the SMC on the bottom layer in M-199 medium (Gibco Labs.). The SMC are stimulated with 100 ng/ml of interleukin-1β (IL-1β) for 24 hours prior to the start of the assay. Porcine peripheral blood lymphocytes are separated by Ficoll-Hypaque, radiolabeled and incubated overnight (about 18 hours) on the EC.
Transendothelial lymphocyte migration in the IL-1β-stimulated SMC is observed as compared to unstimulated SMC (p<0.05).

[5] = in vivo; cited from earlier work
[6] = Table 2, normalized, relative to standard peptide of SEQ ID NO:6
[7] = Table 1, normalized IC50, standard peptide of SEQ ID NO:6 = 1

T2 sequence (P13612 34-1032): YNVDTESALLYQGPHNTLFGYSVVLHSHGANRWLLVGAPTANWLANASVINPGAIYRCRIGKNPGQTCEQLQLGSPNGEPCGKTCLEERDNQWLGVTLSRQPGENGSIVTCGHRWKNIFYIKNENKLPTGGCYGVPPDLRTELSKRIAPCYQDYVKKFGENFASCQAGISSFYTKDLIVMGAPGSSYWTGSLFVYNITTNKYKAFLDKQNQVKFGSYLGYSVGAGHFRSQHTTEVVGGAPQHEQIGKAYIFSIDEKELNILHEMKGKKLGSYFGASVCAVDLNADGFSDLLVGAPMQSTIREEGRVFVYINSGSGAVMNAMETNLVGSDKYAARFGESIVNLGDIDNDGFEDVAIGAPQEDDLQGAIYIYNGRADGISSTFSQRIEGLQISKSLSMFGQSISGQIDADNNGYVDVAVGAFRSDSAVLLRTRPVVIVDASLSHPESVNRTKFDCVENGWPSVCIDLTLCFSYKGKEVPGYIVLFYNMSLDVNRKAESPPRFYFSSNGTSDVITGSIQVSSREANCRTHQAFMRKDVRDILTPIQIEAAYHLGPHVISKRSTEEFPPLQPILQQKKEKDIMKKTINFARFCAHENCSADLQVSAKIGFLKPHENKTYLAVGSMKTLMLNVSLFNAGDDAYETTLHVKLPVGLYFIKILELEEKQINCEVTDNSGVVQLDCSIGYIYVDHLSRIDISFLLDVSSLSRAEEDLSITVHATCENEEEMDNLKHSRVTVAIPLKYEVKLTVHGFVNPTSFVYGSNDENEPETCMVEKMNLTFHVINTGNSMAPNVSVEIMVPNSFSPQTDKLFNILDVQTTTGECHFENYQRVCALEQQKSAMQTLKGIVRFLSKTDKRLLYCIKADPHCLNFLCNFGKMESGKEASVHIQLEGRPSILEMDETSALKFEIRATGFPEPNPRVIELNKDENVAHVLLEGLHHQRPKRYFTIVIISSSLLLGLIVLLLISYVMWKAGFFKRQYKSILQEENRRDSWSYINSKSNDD
T2 sequence (P05556 21-798): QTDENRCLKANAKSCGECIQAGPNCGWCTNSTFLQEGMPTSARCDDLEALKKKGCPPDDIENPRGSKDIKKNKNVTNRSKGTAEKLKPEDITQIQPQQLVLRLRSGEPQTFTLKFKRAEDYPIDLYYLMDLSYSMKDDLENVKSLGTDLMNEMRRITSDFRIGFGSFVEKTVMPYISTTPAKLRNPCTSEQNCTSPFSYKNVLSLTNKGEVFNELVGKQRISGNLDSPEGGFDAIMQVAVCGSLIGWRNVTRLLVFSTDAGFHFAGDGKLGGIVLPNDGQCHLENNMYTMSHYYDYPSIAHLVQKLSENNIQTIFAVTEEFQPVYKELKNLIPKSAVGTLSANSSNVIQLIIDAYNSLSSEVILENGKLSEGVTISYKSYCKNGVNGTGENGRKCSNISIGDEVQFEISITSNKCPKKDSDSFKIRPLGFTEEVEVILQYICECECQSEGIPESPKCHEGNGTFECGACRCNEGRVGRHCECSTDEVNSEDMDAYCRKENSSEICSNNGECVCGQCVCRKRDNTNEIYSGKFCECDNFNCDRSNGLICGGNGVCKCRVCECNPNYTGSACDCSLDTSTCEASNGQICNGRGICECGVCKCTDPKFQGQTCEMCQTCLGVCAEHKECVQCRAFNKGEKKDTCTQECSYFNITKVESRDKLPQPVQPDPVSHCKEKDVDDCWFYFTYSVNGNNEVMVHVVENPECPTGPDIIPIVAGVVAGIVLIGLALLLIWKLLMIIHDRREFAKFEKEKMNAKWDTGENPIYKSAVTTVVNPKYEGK
T1 sequence (P13612 34-1032): as the sequence (P13612 34-1032) above
T1 sequence (P05556 21-798): as the sequence (P05556 21-798) above

**Q.** Which “potency relative to the best linear peptide (XLDFZ), Jurkat cell binding to sVCAM-1” value [1] does the source give for `NC(=O)[C@@H]1CSSC[C@H](NC(=O)Cc2ccccc2)C(=O)N[C@@H](CC(=O)O)C(=O)N[C@@H](Cc2ccccc2)C(=O)N1` [SEQ ID NO:7, N-phenylacetyl-Cys-Asp-Phe-Cys-NH2] (PhAc-CDFC-NH2; disulfide 1-4) here?
**A.** about 3 times

**Q.** And the “potency relative to the best linear peptide (XLDFZ), Jurkat cell binding to CS-1” value [2]?
**A.** about two-thirds

**Q.** What about the IC50 ([2]; Jurkat cells, solid phase-bound CS-1, read-out: absolute IC50 value) of the same compound?
**A.** 300 nM

**Q.** What about the “Relative Potency” value [2, 6] of the same compound?
**A.** 954

**Q.** What about the “CS-1 binding inhibition potencies relative to each other” value ([2]; XLDFp = 1) of the same compound?
**A.** ~1.8

**Q.** What about the “inhibition potency relative to the Standard 10-mer of SEQ ID NO:6” value ([2]; times more potent than standard 10-mer) of the same compound?
**A.** 500-600 and ~563

**Q.** What about the “loss of potency after 24 hours” value ([3]; 24 hours) of the same compound?
**A.** no loss of potency

**Q.** For `CC(C)C[C@@H]1NC(=O)[C@H](Cc2ccccc2)NC(=O)[C@@H](N)CSSC[C@@H](C(N)=O)NC(=O)[C@H](CO)NC(=O)[C@@H]2CCCN2C(=O)[C@H](Cc2ccccc2)NC(=O)[C@H](CC(=O)O)NC1=O` [SEQ ID NO:13, CFLDFPSC--NH2] (H-CFLDFPSC-NH2; disulfide 1-8), which transendothelial lymphocyte migration [4] is on record?
**A.** reduces lymphocyte migration

**Q.** For `NC(=O)[C@@H]1CCCN1C(=O)[C@@H]1CSSC[C@H](NC(=O)[C@@H](N)Cc2ccccc2)C(=O)N[C@@H](CC(=O)O)C(=O)N1` [compound 30] (H-FCDCP-NH2; disulfide 2-4), which “Relative Potency” value [2, 7] is on record?
**A.** < 1

**Q.** For `CC(C)C[C@@H]1NC(=O)[C@H](CCC(=O)O)NC(=O)[C@@H]2CCCN2C(=O)[C@@H](N)CSSC[C@@H](C(N)=O)NC(=O)[C@H](CO)NC(=O)[C@@H]2CCCN2C(=O)[C@H](Cc2ccccc2)NC(=O)[C@H](CC(=O)O)NC1=O` [compound 33] (H-CPELDFPSC-NH2; disulfide 1-9), which “Relative Potency” value [2, 7] is on record?
**A.** 31

**Q.** With “.phi.AcJDFc-NH2 (PhAc-[Pen]DF[dC]-NH2; disulfide 1-4)” as the compound, how does the “Relative Potency” value [2, 7] read?
**A.** 4

**Q.** And the “Relative Potency” value [2, 6]?
**A.** 4.07

**Q.** Which results are given for “CS-1 peptide: 25-residue (25-mer) CS-1 portion of fibronectin that binds to the VLA-4 receptor (DELPQLVTLPHPNLHGPEILDVPST) [reference compound]”?
**A.** clearance from blood circulation [5]: rapidly cleared; time in which potency is lost [3]: less than one

**Q.** Which “Relative Potency” value [2, 7] does the source give for ILDFP-NH2 [compound 27] here?
**A.** 2

**Q.** Which “Relative Potency” value [2, 7] does the source give for ILDVPILDVP-NH2 [compound 26] here?
**A.** 2

**Q.** With SFDFS-NH2 [compound 31] as the compound, how does the “Relative Potency” value [2, 7] read?
**A.** < 1

— patent US5869448A, “Cyclic CS-1 peptidomimetics, compositions and methods of using same” (Cytel Corporation, priority 1995, dated 1999)
